Measurements reported in patent US20260115346A1, “METHOD AND DEVICE FOR DI[…]/OR S[…]” (SCHWING TECHNOLOGIES GMBH, priority 2022, published 2026).

Columns and labels:
[1] = tested on: spores of the bacterium Geobacillus stearothermophilis; test: Validation tests for disinfection of laboratory utensils dripped with spore suspension SAL 10^6; assay type: cell-based, Geobacillus stearothermophilus; settings: for Biological result #not sterile/#tested: PES in solution 4%
[2] = tested on: human patellar tendon allografts; settings: in vitro study; cited from earlier work
[3] = tested on: spores of the bacterium Geobacillus stearothermophilis; test: Validation tests for disinfection of spore strips SAL 10^5; assay type: cell-based, Geobacillus stearothermophilus; settings: for Biological result #not sterile/#tested: 50-55° C.
germs = test: Disinfection and sterilization process on various objects, number of germs after treatment; settings: 55° C., 20 mbar; for Number of germs/m^3 after disinfection: 1.5 g/m^3 PES, 15 min; for Number of germs/m^3 after sterilization: 4 g/m^3 PES, 30 min
Method: Various objects were treated with the method according to the invention in order to disinfect and sterilize them.
The following process parameters were used in the disinfection process:
The following process parameters were used in the sterilization process: […]

[4] = object: Mobile electronic display device

SMILES: CC(=O)OO [PES, peracetic acid]
- Biological result #not sterile/#tested ([1]; test 5, 1.9 g/m^3 PES in process chamber, 120 min, growth after seven days): 0/4
- Biological result #not sterile/#tested ([1]; test 7, 1.9 g/m^3 PES in process chamber, 60 min, growth after seven days): 0/4
- Biological result #not sterile/#tested ([1]; test 8, 1.9 g/m^3 PES in process chamber, 45 min, growth after seven days): 0/4
- Biological result #not sterile/#tested ([1]; test 12, 1.9 g/m^3 PES in process chamber, 15 min, growth after seven days): 0/4
- Biological result #not sterile/#tested ([1]; test 13, 1.9 g/m^3 PES in process chamber, 10 min, growth after seven days): 0/4
- Biological result #not sterile/#tested ([1]; test 14, 1.9 g/m^3 PES in process chamber, 5 min, growth after seven days): 0/4
- Biological result #not sterile/#tested ([1]; test 15, 1.7 g/m^3 PES in process chamber, 20 min, growth after seven days): 0/4
- Biological result #not sterile/#tested ([1]; test 16, 1.7 g/m^3 PES in process chamber, 15 min, growth after seven days): 0/4
- Biological result #not sterile/#tested ([1]; test 19, 1.3 g/m^3 PES in process chamber, 20 min, growth after seven days): 0/4
- Biological result #not sterile/#tested ([1]; test 20, 1.3 g/m^3 PES in process chamber, 15 min, growth after seven days): 0/4
- Biological result #not sterile/#tested ([1]; test 21, 0.94 g/m^3 PES in process chamber, 60 min, growth after seven days): 0/4
- Biological result #not sterile/#tested ([1]; test 22, 0.94 g/m^3 PES in process chamber, 40 min, growth after seven days): 0/4
- Biological result #not sterile/#tested ([1]; test 23, 0.94 g/m^3 PES in process chamber, 30 min, not sterile: pipette): (pipette) 1/8
- Biological result #not sterile/#tested ([1]; test 24, 0.94 g/m^3 PES in process chamber, 20 min, growth after seven days): 0/8
- Biological result #not sterile/#tested ([1]; test 25, 0.94 g/m^3 PES in process chamber, 15 min, not sterile: pipette): (pipette) 1/4
- Biological result #not sterile/#tested ([1]; test 26, 0.94 g/m^3 PES in process chamber, 10 min, growth after seven days): 0/4
- Biological result #not sterile/#tested ([1]; test 27, 0.94 g/m^3 PES in process chamber, 5 min, not sterile: pipette): (pipette) 1/4
- Biological result #not sterile/#tested ([1]; test 28, 0.47 g/m^3 PES in process chamber, 60 min, growth after seven days): 0/4
- Biological result #not sterile/#tested ([1]; test 29, 0.47 g/m^3 PES in process chamber, 30 min, growth after seven days): 0/4
- Biological result #not sterile/#tested ([1]; test 30, 0.47 g/m^3 PES in process chamber, 15 min, not sterile: Eppi): (Eppi) 1/4
- Biological result #not sterile/#tested ([1]; test 31, 0.47 g/m^3 PES in process chamber, 10 min, not sterile: pipette): (pipette) 1/4
- Biological result #not sterile/#tested ([1]; test 32, 0.47 g/m^3 PES in process chamber, 5 min, not sterile: mask, pipette): (mask, pipette) 2/4
- growth of the spores after seven days in nutrient solution ([1]; various experiments, relatively low PES concentration in the process chamber, short process duration): spore growth was observed after seven days
- cytotoxic or pro-inflammatory effect [2]: no cytotoxic or pro-inflammatory effect
- subsequent growth or multiplication of the spores ([3]; all the spore strips tested at different PES concentrations and different process times): No subsequent growth or multiplication of the spores could be detected
- Biological result #not sterile/#tested ([3]; test 1, PES in solution 6%, 3 g/m^3 PES in process chamber, 240 min): 0/2
- Biological result #not sterile/#tested ([3]; test 2, PES in solution 6%, 3 g/m^3 PES in process chamber, 120 min): 0/1
- Biological result #not sterile/#tested ([3]; test 3, PES in solution 6%, 1.7 g/m^3 PES in process chamber, 150 min): 0/2
- Biological result #not sterile/#tested ([3]; test 4, PES in solution 4%, 2 g/m^3 PES in process chamber, 120 min): 0/1
- Biological result #not sterile/#tested ([3]; test 5, PES in solution 4%, 1.9 g/m^3 PES in process chamber, 120 min): 0/2
- Biological result #not sterile/#tested ([3]; test 6, PES in solution 4%, 1.9 g/m^3 PES in process chamber, 90 min): 0/2
- Biological result #not sterile/#tested ([3]; test 7, PES in solution 4%, 1.9 g/m^3 PES in process chamber, 60 min): 0/4
- Biological result #not sterile/#tested ([3]; test 8, PES in solution 4%, 1.9 g/m^3 PES in process chamber, 45 min): 0/1
- Biological result #not sterile/#tested ([3]; test 9, PES in solution 4%, 1.9 g/m^3 PES in process chamber, 40 min): 0/2
- Biological result #not sterile/#tested ([3]; test 10, PES in solution 4%, 1.9 g/m^3 PES in process chamber, 30 min): 0/2
- Biological result #not sterile/#tested ([3]; test 11, PES in solution 4%, 1.9 g/m^3 PES in process chamber, 20 min): 0/2
- Biological result #not sterile/#tested ([3]; test 12, PES in solution 4%, 1.9 g/m^3 PES in process chamber, 15 min): 0/1
- Biological result #not sterile/#tested ([3]; test 13, PES in solution 4%, 1.9 g/m^3 PES in process chamber, 10 min): 0/1
- Biological result #not sterile/#tested ([3]; test 14, PES in solution 4%, 1.9 g/m^3 PES in process chamber, 5 min): 0/1
- Biological result #not sterile/#tested ([3]; test 15, PES in solution 4%, 1.7 g/m^3 PES in process chamber, 20 min): 0/1
- Biological result #not sterile/#tested ([3]; test 16, PES in solution 4%, 1.7 g/m^3 PES in process chamber, 15 min): 0/1
- Biological result #not sterile/#tested ([3]; test 17, PES in solution 4%, 1.5 g/m^3 PES in process chamber, 240 min): 0/2
- Biological result #not sterile/#tested ([3]; test 18, PES in solution 4%, 1.5 g/m^3 PES in process chamber, 150 min): 0/2
- Biological result #not sterile/#tested ([3]; test 19, PES in solution 4%, 1.3 g/m^3 PES in process chamber, 20 min): 0/1
- Biological result #not sterile/#tested ([3]; test 20, PES in solution 4%, 1.3 g/m^3 PES in process chamber, 15 min): 0/1
- Biological result #not sterile/#tested ([3]; test 21, PES in solution 4%, 0.94 g/m^3 PES in process chamber, 60 min): 0/5
- Biological result #not sterile/#tested ([3]; test 22, PES in solution 4%, 0.94 g/m^3 PES in process chamber, 40 min): 0/1
- Biological result #not sterile/#tested ([3]; test 23, PES in solution 4%, 0.94 g/m^3 PES in process chamber, 30 min): 0/2
- Biological result #not sterile/#tested ([3]; test 24, PES in solution 4%, 0.94 g/m^3 PES in process chamber, 20 min): 0/2
- Biological result #not sterile/#tested ([3]; test 25, PES in solution 4%, 0.94 g/m^3 PES in process chamber, 15 min): 0/1
- Biological result #not sterile/#tested ([3]; test 26, PES in solution 4%, 0.94 g/m^3 PES in process chamber, 10 min): 0/1
- Biological result #not sterile/#tested ([3]; test 27, PES in solution 4%, 0.94 g/m^3 PES in process chamber, 5 min): 0/1
- Biological result #not sterile/#tested ([3]; test 28, PES in solution 4%, 0.47 g/m^3 PES in process chamber, 60 min): 0/1
- Biological result #not sterile/#tested ([3]; test 29, PES in solution 4%, 0.47 g/m^3 PES in process chamber, 30 min): 0/1
- Biological result #not sterile/#tested ([3]; test 30, PES in solution 4%, 0.47 g/m^3 PES in process chamber, 15 min): 0/1
- Biological result #not sterile/#tested ([3]; test 31, PES in solution 4%, 0.47 g/m^3 PES in process chamber, 10 min): 0/1
- Biological result #not sterile/#tested ([3]; test 32, PES in solution 4%, 0.47 g/m^3 PES in process chamber, 5 min): 0/1
- Number of germs/m^3 after disinfection (germs; object: FFP mask): 1220 germs/m^3
- Number of germs/m^3 after sterilization (germs; object: FFP mask): germ-free
- Number of germs/m^3 after disinfection (germs; object: Infusomat): 1160 germs/m^3
- Number of germs/m^3 after sterilization (germs; object: Infusomat): germ-free
- Number of germs/m^3 after disinfection (germs; object: MNS): 870 germs/m^3
- Number of germs/m^3 after sterilization (germs; object: MNS): germ-free
- Number of germs/m^3 after disinfection (germs; [4]): 430 germs/m^3
- Number of germs/m^3 after sterilization (germs; [4]): germ-free
- Number of germs/m^3 after disinfection (germs; object: Surgical clogs): 1370 germs/m^3
- Number of germs/m^3 after sterilization (germs; object: Surgical clogs): germ-free
- Number of germs/m^3 after disinfection (germs; object: blower filter unit): 1740 germs/m^3
- Number of germs/m^3 after sterilization (germs; object: blower filter unit): germ-free
- Number of germs/m^3 after disinfection (germs; object: disposable gloves): 920 germs/m^3
- Number of germs/m^3 after sterilization (germs; object: disposable gloves): germ-free
- Number of germs/m^3 after disinfection (germs; object: protective overalls): 270 germs/m^3
- Number of germs/m^3 after sterilization (germs; object: protective overalls): germ-free
- Number of germs/m^3 after disinfection (germs; object: visor): 360 germs/m^3
- Number of germs/m^3 after sterilization (germs; object: visor): germ-free
